Assay results published in the NIST ThermoML archive (doi:10.1016/j.fluid.2011.04.022).

Conditions: Liquid, Vibrating tube method

FC(F)(F)CC(F)(F)F [1,1,1,3,3,3-hexafluoropropane]
mass density [kg/m3]
Conditions	293.38 K	303.23 K	313.1 K	322.94 K	333.06 K	343.19 K	353.23 K	363.22 K	373.17 K
1000 kPa	1380.41	1346.41	1310.15	1272.73	1230.59	–	–	–	–
3000 kPa	1389.7	1356.85	1322.54	1287.52	1248.74	1207.31	1161.43	–	–
5000 kPa	1398.14	1366.62	1333.75	1300.71	1264.58	1226.45	1185.57	1140.64	1091.26
10000 kPa	1417.22	1388.23	1358.32	1328.74	1297.09	1264.58	1230.77	1195.26	1158.13
15000 kPa	1434.22	1407.04	1379.33	1352.16	1323.56	1294.29	1264.63	1233.73	1202.21
20000 kPa	1449.45	1423.79	1397.77	1372.4	1345.92	1319.04	1292.08	1264.17	1236.05
25000 kPa	1463.39	1438.88	1414.16	1390.33	1365.48	1340.43	1315.3	1289.66	1263.9
30000 kPa	1476.18	1452.75	1429.13	1406.5	1382.82	1359.27	1335.89	1311.7	1287.72
35000 kPa	1488.18	1465.54	1442.8	1421.01	1398.61	1376.24	1354.11	1331.22	1308.62
40000 kPa	1499.36	1477.52	1455.53	1434.57	1413.18	1391.75	1370.58	1348.77	1327.34
50000 kPa	1519.84	1499.35	1478.52	1459.05	1439.06	1419.24	1399.7	1379.54	1359.88
60000 kPa	1538.35	1518.78	1499.21	1480.75	1461.86	1443.29	1424.96	1406.01	1387.66
70000 kPa	1555.2	1536.58	1517.63	1500.21	1482.19	1464.6	1447.34	1429.34	1412.03

FC(F)CC(F)(F)F [1,1,1,3,3-pentafluoropropane]
mass density [kg/m3]
Conditions	293.84 K	303.46 K	313.18 K	323 K	332.83 K	343.01 K	353 K	362.91 K	372.94 K
1000 kPa	1352.16	1326.31	1299.2	1270.55	1240.26	1206.92	–	–	–
3000 kPa	1357.97	1332.8	1306.56	1278.98	1250.02	1218.46	1185.75	1150.79	1112.26
5000 kPa	1363.53	1338.98	1313.51	1286.86	1259.06	1228.97	1198.11	1165.55	1130.36
10000 kPa	1376.42	1353.32	1329.44	1304.71	1279.16	1251.88	1224.38	1195.94	1165.97
15000 kPa	1388.34	1366.31	1343.73	1320.47	1296.63	1271.37	1246.17	1220.45	1193.67
20000 kPa	1399.29	1378.22	1356.77	1334.65	1312.15	1288.45	1265.01	1241.23	1216.58
25000 kPa	1409.54	1389.33	1368.61	1347.58	1326.17	1303.77	1281.67	1259.38	1236.4
30000 kPa	1419.03	1399.65	1379.73	1359.46	1339.02	1317.65	1296.64	1275.54	1253.82
35000 kPa	1428.09	1409.33	1390.16	1370.64	1350.93	1330.42	1310.33	1290.2	1269.55
40000 kPa	1436.79	1418.45	1399.89	1381.03	1362.03	1342.2	1322.95	1303.67	1283.89
50000 kPa	1452.73	1435.43	1417.82	1400.08	1382.12	1363.61	1345.62	1327.67	1309.28
60000 kPa	1467.39	1450.88	1434.07	1417.12	1400.21	1382.71	1365.63	1348.77	1331.43
70000 kPa	1480.99	1465.1	1449.07	1432.87	1416.64	1399.92	1383.75	1367.68	1351.23
